Reference: patent publication US12133915B2, “Method of treating epilepsy” (ALEXZA PHARMACEUTICALS, INC., priority 2016, dated 2024)

How the values were obtained:
[1] = Aerosol particle size distribution by Next Generation Pharmaceutical Impactor (NGI); type: physicochemical; conditions: condensation aerosol, FIG. 4
Description: At least 80% by weight of the alprazolam aerosol particles have a size less than 5 microns, preferably at least 90% by weight of the alprazolam aerosol particles have a size less than 5 microns. At least 50% by weight of the alprazolam aerosol particles have a size less than 2 microns, preferably at least 50% by weight of the alprazolam aerosol particles have a size less than 1 micron. The Next Generation Pharmaceutical Impactor (NGI) was used to determine the particle size distribution.

[2] = system: patients with photosensitive epilepsy; test: Adverse events and tolerability, Phase 2a study; type: in vivo, human; conditions: for Cough, subjects with adverse event / Dizziness, subjects with adverse event / Dysgeusia, subjects with adverse event / Oral Dysaesthesia, subjects with adverse event / Sedation/somnolence, subjects with adverse event: N = 5
Description: (§1) Secondary study endpoints included assessment of sedation using two visual analogue scales (VAS); correlation of plasma concentrations of inhaled alprazolam with PD effects on the SPR range; correlation of plasma concentrations of inhaled alprazolam with PD effects on sedation; and assessment of adverse events and changes in the neurological examination.
An assessment of adverse events and changes in the neurological examination were made. The safety profile was consistent with oral alprazolam.

[3] = cited from earlier work
dogs [4] = test: 28-day GLP inhalation toxicity study with 14-day recovery in dogs; conditions: 28-day inhalation
rats = test: 14-day inhalation toxicity study in rats; type: in vivo
Experimental: In the 14-day inhalation toxicity study in rats, the no-adverse-effect level was considered to be 10.3 mg/kg/day.

[5] = Pharmacokinetic study in dogs, intravenous or inhalation administration; conditions: dog, in vivo
Description: In a pharmacokinetic (PK) study in dogs, alprazolam PK was profiled following either intravenous or inhalation administration.

cytochrome P450 = test: In vitro cytochrome P450 inhibition potential; type: in vitro ADME; conditions: maximum alprazolam concentration tested
Description: (§2) In vitro drug transporter and cytochrome P450 inhibition potential were also studied.

dogs [6] = test: 5-day exploratory inhalation toxicity study in dogs; type: in vivo; conditions: 5-day inhalation
Experimental: In a 5-day exploratory inhalation toxicity study in dogs, the no-observed-adverse-effect level was 1.5 mg/kg/day for treatment-related histopathological findings.

dogs [7] = test: Cardiovascular and respiratory safety study in dogs, intravenous dosing; type: in vivo
Experimental: However, these changes were within normal ranges and not considered biologically significant. The plasma concentration of alprazolam associated with modest cardiovascular or respiratory effects exceeded 900 ng/mL and would not be expected to induce any significant changes at the range of doses planned considered for clinical studies (0.5 to 2.0 mg).

drug transporter = test: In vitro drug transporter inhibition potential; type: in vitro ADME; conditions: maximum alprazolam concentration tested
Description: as §2

[8] = Plasma concentration of alprazolam in phase 1 and phase 2a clinical trials; type: in vivo, human
Experimental: (§3) Patients at least 18 years old with photosensitive epilepsy at 3 sites were tested on a baseline day, and then received in randomized order either inhaled placebo (on 2 days) or 0.5, 1 or 2 mg inhaled alprazolam delivered using a hand-held inhaled alprazolam device. Study days were separated by at least 1 week. Presence (and degree) of photosensitivity was measured predose, then at 2 min, 10 min, 30 min, 1, 2, 4 and 6 hours post-dose. Plasma concentration of study drug was measured at each time point. Sedation was assessed at each time point using the 100-mm linear visual analogue scale (VAS).
FIGS. 5A and 5B show graphs of the mean plasma concentration of alprazolam in phase 1 and phase 2a clinical trials respectively. The graphs indicate a rapid uptake of alprazolam into the plasma after […] administration of the condensation aerosol. […] Mean peak plasma concentration occurred one to two minutes after administration of the alprazolam […] aerosol.

[9] = system: patients with photosensitive epilepsy (IPS-induced photoparoxysmal EEG response); test: Intermittent photic stimulation (IPS) photosensitivity model, Phase 2a proof-of-concept study; type: in vivo, human
Experimental: Example 1 evaluated the ability of inhaled alprazolam to rapidly suppress photosensitivity in a double blind placebo-controlled crossover proof of concept study. This study was an in-clinic, randomized, placebo-controlled, double-blind design, 5-way crossover study design, which allowed for small patient size. Epilepsy patients were evaluated using an Intermittent Photic Stimulation model, allowing for screening for antiepileptic effects without triggering seizures or convulsive responses. Three doses of alprazolam were investigated along with placebo (twice) in 5 subjects.
In patients with photosensitive epilepsy, intermittent photic stimulation was used to elicit generalized epileptiform EEG activity. The subject is exposed to certain frequency of light stimulation (flash frequencies), and photosensitivity range measured. The model has been used to identify antiepileptic effects on a number of drugs.
The primary objectives of the study were to assess 1) the effects of inhaled alprazolam on the IPS-induced photoparoxysmal EEG response in patients with epilepsy, 2) the sedative properties of these doses in order to select maximally-effective dose with the least sedation for further clinical studies, and 3) overall safety. The primary endpoint was the change in the Standard Photosensitivity Range (SPR) in subjects receiving each dose of inhaled alprazolam.
as §3
The test subjects were exposed to intermittent photic stimulation (14 frequencies, from 2 to 60 Hz), starting with lowest frequency and increasing frequency stepwise until a photosensitivity response was elicited. The test was repeated with the highest frequency and decreased frequency. The results can be summarized in a quantitative measure known as the Standardized Photosensitive Range (SPR). The Maximum SPR is 14. In the example shown, SPR is 8. The Primary endpoint is reduction in mean SPR, which is an indication of antiseizure activity. Patients that have a relatively stable SPR were enrolled in the study to allow for small study size.

[10] = system: patients with photosensitive epilepsy; test: Sedation by visual analogue scale (VAS), Phase 2a study; type: in vivo, human
Experimental: as §3, §1
Assessment of the sedation using 2 visual analogue scales was made. […] A correlation of plasma concentrations of inhaled alprazolam with pharmacodynamic effects on sedation was made. […] Maximum sedation occurred within about two minutes of administration of alprazolam. Clinical observations support early onset of sedation at 30 seconds.

rat = test: Rat inhalation MTD study; type: in vivo
[11] = all treatment arms of the crossover (incl. placebo)

With `Cc1nnc2n1-c1ccc(Cl)cc1C(c1ccccc1)=NC2` [alprazolam, 8-chloro-1-methyl-6-phenyl-4H-[1,2,4]triazolo [4,3-α][1,4]-benzodiazepine] the “mass median aerodynamic diameter (MMAD) of aerosol particles” value [1] was 1.2 to 1.8 microns, the “Cough, subjects with adverse event” value ([2]; 0.5 mg) was 2 n and the “Dizziness, subjects with adverse event” value ([2]; 0.5 mg) was 1 n. For the same molecule, the “Dysgeusia, subjects with adverse event” value ([2]; 0.5 mg) was 2 n, the “Oral Dysaesthesia, subjects with adverse event” value ([2]; 0.5 mg) was 2 n and the “Sedation/somnolence, subjects with adverse event” value ([2]; 0.5 mg) was 1 n. For the same molecule, the “Cough, subjects with adverse event” value ([2]; 1 mg) was 1 n, the “Dizziness, subjects with adverse event” value ([2]; 1 mg) was 0 n and the “Dysgeusia, subjects with adverse event” value ([2]; 1 mg) was 2 n. For the same molecule, the “Oral Dysaesthesia, subjects with adverse event” value ([2]; 1 mg) was 0 n, the “Sedation/somnolence, subjects with adverse event” value ([2]; 1 mg) was 2 n and the “Cough, total number of subjects experiencing an event” value [2, 11] was 2. For the same molecule, the “Dizziness, total number of subjects experiencing an event” value [2, 11] was 1, the “Dysgeusia, total number of subjects experiencing an event” value [2, 11] was 2 and the “Oral Dysaesthesia, total number of subjects experiencing an event” value [2, 11] was 2. For the same molecule, the “Sedation/somnolence, total number of subjects experiencing an event” value [2, 11] was 2, the serious adverse events ([2]; doses up to 2 mg, listed as inhaled alprazolam) was “no reported serious adverse events” and the tolerability of treatment ([2]; in vivo) was “well tolerated”. For the same molecule, the solubility in chloroform ([3]; chloroform) was “freely soluble”, the solubility in ethanol ([3]; ethanol) was “soluble” and the solubility in methanol ([3]; methanol) was “soluble”. The solubility in water ([3]; water) was “practically insoluble”, the “deaths during the study” value (dogs [4]) was “no deaths” and the immunogenic potential (dogs [4]) was “no immunoglobulin or hypersensitivity response”. The “no-observed-effect level for histopathological findings” value (dogs [4]; females) was 4.4 mg/kg/day, the “no-observed-effect level for histopathological findings” value (dogs [4]; males) was 2.8 mg/kg/day and the no-adverse-effect level (rats) was 10.3 mg/kg/day. For the same molecule, the Tmax ([5]; inhaled or intranasal, inhalation) was less than 1 min, the bioavailability ([5]; inhaled, inhalation versus intravenous) was 85 to 96% and the “cytochrome P450 inhibition” value (cytochrome P450) was “No inhibition”. The “no-observed-adverse-effect level for treatment-related histopathological findings” value (dogs [6]) was 1.5 mg/kg/day, the “plasma concentration associated with modest cardiovascular or respiratory effects” value (dogs [7]; intravenous) was “exceeded 900 ng/mL” and the heart rate (dogs [7]; intravenous over 5 sec) was “transient increase”. For the same molecule, the respiratory rate (dogs [7]; intravenous over 5 sec) was “transient decrease”, the drug transporter inhibition (drug transporter) was “No inhibition” and the “PK analysis, plasma concentrations versus dose” value ([8]; 0.5, 1, 2 mg) was “dose proportionality”. For the same molecule, the “time of mean peak plasma concentration” value ([8]; after administration of condensation aerosol) was “one to two”, the “rapid rise in alprazolam plasma levels, time” value ([8]; inhaled) was “less than 2 min” and the effect on photosensitivity ([9]; 1 mg and 2 mg doses) was “almost complete elimination of the photosensitivity”. The “time reduction of SPR was maintained” value ([9]; after administration) was “at least six”, the “change in mean standardized photosensitivity range (SPR)” value ([9]; all doses (0.5, 1, 2 mg inhaled)) was “decreased” and the “time to maximal or near-maximal effect on SPR” value ([9]; all doses, post dose) was no more than 2 min. For the same molecule, the “maximal decrease in SPR” value ([9]; at least at the earlier time points) was “approximately 5 steps”, the “duration of effects on SPR” value ([9]; higher doses) was 4 h and the “onset of SPR response” value ([9]; in vivo) was “less than two”. For the same molecule, the “time to suppression of epileptic activity / effects on EEG” value ([9]; patients with photosensitive epilepsy) was no more than 2 min, the “epileptiform activity in post-dose EEG traces” value ([9]; representative patient, FIG. 7B) was “complete abolishment of epileptiform activity” and the “sedation, relation to dose” value ([10]; 0.5, 1, 2 mg) was “dose related”. For the same molecule, the “time to maximum sedation (VAS)” value ([10]; after administration) was “two”, the “early onset of sedation, clinical observations” value ([10]; in vivo) was 30 s and the “onset of VAS (sedation) response” value ([10]; in vivo) was “less than two”. The “single inhaled dose well tolerated” value (rat) was “up to 10.8 mg/kg”.
